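1) Cells in 96-well plates. 2) Compound, 48 h, 5 concentrations. 3) Linear interpolation between surrounding doses. 4) Unreached endpoint = highest concentration. The concentration for full growth arrest is given as TGI.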
Experiments:
Test in all cases: NCI tumour cell line growth inhibition, 48 h
SF-268 CNS = tested on: SF-268 CNS
NCI-H226 lung = tested on: NCI-H226 lung
HOP-92 NSCLC = tested on: HOP-92 NSCLC
SR leukemia = tested on: SR leukemia
SK-MEL-5 melanoma = tested on: SK-MEL-5 melanoma
OVCAR-3 ovarian = tested on: OVCAR-3 ovarian
PC-3 prostate = tested on: PC-3 prostate
LOX IMVI melanoma = tested on: LOX IMVI melanoma
IGROV1 ovarian = tested on: IGROV1 ovarian
MOLT-4 leukemia = tested on: MOLT-4 leukemia
A498 renal = tested on: A498 renal
MCF7 breast = tested on: MCF7 breast
MDA-MB-435 = tested on: MDA-MB-435
HOP-62 NSCLC = tested on: HOP-62 NSCLC
ACHN renal = tested on: ACHN renal
786-0 renal = tested on: 786-0 renal
RPMI-8226 leukemia = tested on: RPMI-8226 leukemia
SNB-75 CNS = tested on: SNB-75 CNS
K-562 leukemia = tested on: K-562 leukemia
NCI-H23 lung = tested on: NCI-H23 lung
COLO 205 colon = tested on: COLO 205 colon
SK-MEL-28 melanoma = tested on: SK-MEL-28 melanoma
SF-295 CNS = tested on: SF-295 CNS
KM12 colon = tested on: KM12 colon
SK-OV-3 ovarian = tested on: SK-OV-3 ovarian
HT29 colon = tested on: HT29 colon
OVCAR-8 ovarian = tested on: OVCAR-8 ovarian
RXF 393 renal = tested on: RXF 393 renal
MALME-3M melanoma = tested on: MALME-3M melanoma
EKVX NSCLC = tested on: EKVX NSCLC
NCI-H522 lung = tested on: NCI-H522 lung
BT-549 breast = tested on: BT-549 breast
SN12C renal = tested on: SN12C renal
MDA-MB-231 breast = tested on: MDA-MB-231 breast
A549 NSCLC = tested on: A549 NSCLC
SK-MEL-2 melanoma = tested on: SK-MEL-2 melanoma
HL-60(TB) leukemia = tested on: HL-60(TB) leukemia
HS 578T breast = tested on: HS 578T breast
U251 CNS = tested on: U251 CNS
CAKI-1 renal = tested on: CAKI-1 renal
SF-539 CNS = tested on: SF-539 CNS
DU-145 prostate = tested on: DU-145 prostate
UACC-62 melanoma = tested on: UACC-62 melanoma
TK-10 renal = tested on: TK-10 renal
OVCAR-5 ovarian = tested on: OVCAR-5 ovarian
M14 melanoma = tested on: M14 melanoma
NCI/ADR-RES ovarian = tested on: NCI/ADR-RES ovarian
UO-31 renal = tested on: UO-31 renal
T-47D breast = tested on: T-47D breast
MDA-N = tested on: MDA-N
HCT-116 colon = tested on: HCT-116 colon
OVCAR-4 ovarian = tested on: OVCAR-4 ovarian
HCT-15 colon = tested on: HCT-15 colon
NCI-H460 lung = tested on: NCI-H460 lung
UACC-257 melanoma = tested on: UACC-257 melanoma
SW-620 colon = tested on: SW-620 colon
CCRF-CEM leukemia = tested on: CCRF-CEM leukemia
SNB-19 CNS = tested on: SNB-19 CNS
HCC-2998 colon = tested on: HCC-2998 colon

N=C(N)SCCN1CCCCC1
TGI (SF-268 CNS): > 100 µM | TGI (NCI-H226 lung): 47.7 µM | TGI (HOP-92 NSCLC): > 100 µM | TGI (SR leukemia): 60.1 µM | TGI (SK-MEL-5 melanoma): > 100 µM | TGI (OVCAR-3 ovarian): 43.9 µM | TGI (PC-3 prostate): 45.8 µM | TGI (LOX IMVI melanoma): 48.4 µM | TGI (IGROV1 ovarian): > 100 µM | TGI (MOLT-4 leukemia): 58 µM | TGI (A498 renal): > 100 µM | TGI (MCF7 breast): 34.3 µM | TGI (MDA-MB-435): 52.7 µM | TGI (HOP-62 NSCLC): > 100 µM | TGI (ACHN renal): > 100 µM | TGI (786-0 renal): 51.5 µM | TGI (RPMI-8226 leukemia): 40.2 µM | TGI (SNB-75 CNS): 94.1 µM | TGI (K-562 leukemia): 62.1 µM | TGI (NCI-H23 lung): > 100 µM | TGI (COLO 205 colon): > 100 µM | TGI (SK-MEL-28 melanoma): 88.8 µM | TGI (SF-295 CNS): > 100 µM | TGI (KM12 colon): > 100 µM | TGI (SK-OV-3 ovarian): > 100 µM | TGI (HT29 colon): > 100 µM | TGI (OVCAR-8 ovarian): > 100 µM | TGI (RXF 393 renal): 32.6 µM | TGI (MALME-3M melanoma): 32.1 µM | TGI (EKVX NSCLC): > 100 µM | TGI (NCI-H522 lung): 24.3 µM | TGI (BT-549 breast): 64.9 µM | TGI (SN12C renal): 73.4 µM | TGI (MDA-MB-231 breast): 44.6 µM | TGI (A549 NSCLC): > 100 µM | TGI (SK-MEL-2 melanoma): 17 µM | TGI (HL-60(TB) leukemia): 46.3 µM | TGI (HS 578T breast): 58.2 µM | TGI (U251 CNS): 44 µM | TGI (CAKI-1 renal): 72.9 µM | TGI (SF-539 CNS): 84.1 µM | TGI (DU-145 prostate): 64.7 µM | TGI (UACC-62 melanoma): 55.2 µM | TGI (TK-10 renal): > 100 µM | TGI (OVCAR-5 ovarian): > 100 µM | TGI (M14 melanoma): 50.3 µM | TGI (NCI/ADR-RES ovarian): > 100 µM | TGI (UO-31 renal): > 100 µM | TGI (T-47D breast): 85.6 µM | TGI (MDA-N): > 100 µM | TGI (HCT-116 colon): > 100 µM | TGI (OVCAR-4 ovarian): > 100 µM | TGI (HCT-15 colon): > 100 µM | TGI (NCI-H460 lung): > 100 µM | TGI (UACC-257 melanoma): 41.6 µM | TGI (SW-620 colon): > 100 µM

Cn1c(-c2cccs2)cc(-c2ccsc2)c1-c1cccs1
TGI (SF-268 CNS): > 100 µM | TGI (NCI-H226 lung): > 100 µM | TGI (HOP-92 NSCLC): > 100 µM | TGI (SR leukemia): > 100 µM | TGI (OVCAR-3 ovarian): > 100 µM | TGI (PC-3 prostate): > 100 µM | TGI (IGROV1 ovarian): > 100 µM | TGI (MOLT-4 leukemia): > 100 µM | TGI (A498 renal): > 100 µM | TGI (MCF7 breast): > 100 µM | TGI (CCRF-CEM leukemia): > 100 µM | TGI (MDA-MB-435): > 100 µM | TGI (HOP-62 NSCLC): > 100 µM | TGI (ACHN renal): > 100 µM | TGI (786-0 renal): > 100 µM | TGI (SNB-75 CNS): > 100 µM | TGI (K-562 leukemia): > 100 µM | TGI (NCI-H23 lung): > 100 µM | TGI (COLO 205 colon): 46.5 µM | TGI (SK-MEL-28 melanoma): > 100 µM | TGI (SF-295 CNS): > 100 µM | TGI (KM12 colon): > 100 µM | TGI (SK-OV-3 ovarian): > 100 µM | TGI (SNB-19 CNS): > 100 µM | TGI (HT29 colon): > 100 µM | TGI (OVCAR-8 ovarian): > 100 µM | TGI (RXF 393 renal): > 100 µM | TGI (MALME-3M melanoma): > 100 µM | TGI (EKVX NSCLC): > 100 µM | TGI (NCI-H522 lung): > 100 µM | TGI (BT-549 breast): > 100 µM | TGI (SN12C renal): > 100 µM | TGI (HCC-2998 colon): > 100 µM | TGI (MDA-MB-231 breast): > 100 µM | TGI (A549 NSCLC): > 100 µM | TGI (HS 578T breast): > 100 µM | TGI (U251 CNS): > 100 µM | TGI (CAKI-1 renal): > 100 µM | TGI (SF-539 CNS): > 100 µM | TGI (DU-145 prostate): > 100 µM | TGI (UACC-62 melanoma): > 100 µM | TGI (TK-10 renal): > 100 µM | TGI (OVCAR-5 ovarian): > 100 µM | TGI (M14 melanoma): > 100 µM | TGI (NCI/ADR-RES ovarian): > 100 µM | TGI (UO-31 renal): > 100 µM | TGI (T-47D breast): 73.2 µM | TGI (MDA-N): > 100 µM | TGI (HCT-116 colon): > 100 µM | TGI (OVCAR-4 ovarian): > 100 µM | TGI (HCT-15 colon): > 100 µM | TGI (NCI-H460 lung): > 100 µM | TGI (UACC-257 melanoma): > 100 µM | TGI (SW-620 colon): > 100 µM

Reference: PubChem BioAssay (NCI)
